Assay results reported in US6734204B1, “Serotonin potentiation by oleamide analogs” (The Scripps Research Institute, priority 1998, dated 2004).
Entries after “also recorded” stand apart in the source; their conditions may differ. Like-named read-outs stand apart in the source and are kept apart here.

Tests used:
[1] = biological target: T1, rat 5-HT2A receptor (Rattus norvegicus, UniProt P14842); assay: R-SAT assay, NIH 3T3 cells expressing the rat 5-HT2A receptor, β-galactosidase readout; format: cell-based; conditions: agent 500 nM, 100 nM 5-HT, compared with oleamide
T1 construct: host or cells: NIH 3T3 cells, cotransfected with the beta-galactosidase gene
Procedure: (§1) Activation of the 5-HT2A or 5-HT1A receptors in 5-HT dependent cell lines results in cell prolification measured by the levels of -galactosidase produced.
(§2) An extensive series of agents was tested at 500 nM for their ability to potentiate the rat 5-HT2A or human 5-HT1A receptor response to 100 nM 5-HT. […] The analog screening was conducted with the rat 5-HT2A assay and a subset of analogs was also examined in the human 5-HT1A assay. The results reported are normalized to a 100% potentiation by oleamide for the ease of direct comparisons.
(§3) Methods. The assays were conducted with R-SAT kits (Receptor Technologies Inc, Winooski, Vt.) containing NIH 3T3 cells expressing the rat 5-HT2A receptor (Suter et al. (1987) Fundam. Appl. Toxicol. 9, 785-794; Pritchett et al. (1988) EMBO J 7, 4135-4140) or RAT-1 cells expressing the human 5-HT1A receptor (Lam et al. (1996) Biochem. Biophys. Res. Commun. 219, 853-858; Kobilka et al. (1987) Nature 329, 75-79) cotransfected with the -galactosidase gene and were performed according to the procedures provided (Messier et al. (1995) Pharmacol. Toxicol. 76, 308-311; Brann et al. (1996) J. Biomol. Screening 1, 43-45). The cells in Dulbecco modified Eagle's medium containing serotonin (100 nM) and the analogs (500 nM) were incubated in a humidified 5% CO2 incubator at 37° C. for 4 or 5 days for the 5-HT2A and 5-HT1A transfected cells, respectively. Levels of -galactosidase were measured after incubation with the chromogenic substrate o-nitrophenyl- -D-galactopyranoside (20) at 30° C. in a humidified incubator for a recommended period of time and the absorbance was measured at 405 nm. The results were normalized to 100% for oleamide (rel. % potentiation) for the ease of comparison and are the average of 2-8 determinations.

[2] = biological target: T2, human 5-HT1A receptor (Homo sapiens, UniProt P08908); assay: R-SAT assay, RAT-1 cells expressing the human 5-HT1A receptor, β-galactosidase readout; format: cell-based; conditions: agent 500 nM, 100 nM 5-HT, compared with oleamide
T2 construct: host or cells: RAT-1 cells, cotransfected with the beta-galactosidase gene
T2 sequence (P08908 1-422): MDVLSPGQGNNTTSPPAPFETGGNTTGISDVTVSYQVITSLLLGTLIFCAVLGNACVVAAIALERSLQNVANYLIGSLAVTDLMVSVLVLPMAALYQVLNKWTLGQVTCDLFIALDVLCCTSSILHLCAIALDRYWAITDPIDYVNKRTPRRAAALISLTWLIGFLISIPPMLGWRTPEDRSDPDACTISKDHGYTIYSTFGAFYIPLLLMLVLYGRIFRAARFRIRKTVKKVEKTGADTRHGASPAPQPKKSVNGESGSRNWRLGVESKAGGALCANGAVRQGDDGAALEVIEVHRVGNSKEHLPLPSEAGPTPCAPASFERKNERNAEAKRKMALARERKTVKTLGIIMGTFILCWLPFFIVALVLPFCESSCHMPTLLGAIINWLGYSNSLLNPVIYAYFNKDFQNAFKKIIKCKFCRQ
Procedure: as §1, §2, §3

[3] = biological target: T1, rat 5-HT2A receptor; assay: R-SAT assay, NIH 3T3 cells expressing the rat 5-HT2A receptor, β-galactosidase readout; format: cell-based; conditions: for potentiation response: 100 nM oleamide
[4] = biological target: T2, human 5-HT1A receptor; assay: R-SAT assay, RAT-1 cells expressing the human 5-HT1A receptor, β-galactosidase readout; format: cell-based; conditions: for potentiation: 100 nM 5-HT
[5] = biological target: T3, 5-HT2C receptor (Homo sapiens, UniProt P28335); conditions: cited from earlier work
T3 construct: host or cells: frog oocytes, transfected
T3 sequence (P28335 33-458): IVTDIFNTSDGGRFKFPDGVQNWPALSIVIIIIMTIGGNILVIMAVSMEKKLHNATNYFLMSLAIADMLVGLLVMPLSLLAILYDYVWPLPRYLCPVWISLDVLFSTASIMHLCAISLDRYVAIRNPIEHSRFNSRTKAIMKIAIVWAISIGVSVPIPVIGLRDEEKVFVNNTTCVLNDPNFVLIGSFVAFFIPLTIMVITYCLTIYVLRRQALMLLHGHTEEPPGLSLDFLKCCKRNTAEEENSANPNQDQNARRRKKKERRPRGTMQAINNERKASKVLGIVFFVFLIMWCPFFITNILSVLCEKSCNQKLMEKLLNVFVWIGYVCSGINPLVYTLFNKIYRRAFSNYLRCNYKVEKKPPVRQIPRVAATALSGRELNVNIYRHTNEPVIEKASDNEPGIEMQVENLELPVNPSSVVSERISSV

[6] = biological target: T4, 5-HT7 receptor (Homo sapiens, UniProt P34969); conditions: cited from earlier work
T4 construct: host or cells: HeLa cells, transfected

[7] = biological target: T5, 5-HT3 ion-gated channel receptor (Homo sapiens, UniProt P46098); conditions: 100 nM serotonin, 100 nM oleamide; cited from earlier work
T5 construct: host or cells: frog oocytes, transfected
T5 sequence (P46098 24-478): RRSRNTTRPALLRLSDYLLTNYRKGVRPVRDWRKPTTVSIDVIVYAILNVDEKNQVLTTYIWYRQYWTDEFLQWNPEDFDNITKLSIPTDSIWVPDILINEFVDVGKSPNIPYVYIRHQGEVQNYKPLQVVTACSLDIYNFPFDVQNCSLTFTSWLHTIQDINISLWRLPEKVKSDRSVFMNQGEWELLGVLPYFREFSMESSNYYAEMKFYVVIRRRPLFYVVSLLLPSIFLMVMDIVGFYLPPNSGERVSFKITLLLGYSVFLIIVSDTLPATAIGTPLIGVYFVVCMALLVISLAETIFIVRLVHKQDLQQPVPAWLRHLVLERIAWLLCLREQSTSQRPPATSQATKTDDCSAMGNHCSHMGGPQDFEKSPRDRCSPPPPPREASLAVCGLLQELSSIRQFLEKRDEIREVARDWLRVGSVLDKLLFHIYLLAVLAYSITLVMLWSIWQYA

[8] = biological target: T6, 5-HT2A receptors (Rattus norvegicus, UniProt P14842); conditions: 100 nM serotonin, 100 nM oleamide; Thomas et al. 1997; cited from earlier work
T6 construct: rat pituitary P11 cells expressing the 5-HT2 receptor; endogenous in cells; host or cells: rat pituitary P11 cells

[9] = biological target: T7, 5-HT2A receptor (Homo sapiens, UniProt P28223); conditions: 100 nM serotonin, 100 nM oleamide; Huidobro-Toro et al. 1996; cited from earlier work
T7 construct: host or cells: frog oocytes, transfected

[10] = test system: FAAH; conditions: cited from earlier work

T1 sequence (P14842 whole entry): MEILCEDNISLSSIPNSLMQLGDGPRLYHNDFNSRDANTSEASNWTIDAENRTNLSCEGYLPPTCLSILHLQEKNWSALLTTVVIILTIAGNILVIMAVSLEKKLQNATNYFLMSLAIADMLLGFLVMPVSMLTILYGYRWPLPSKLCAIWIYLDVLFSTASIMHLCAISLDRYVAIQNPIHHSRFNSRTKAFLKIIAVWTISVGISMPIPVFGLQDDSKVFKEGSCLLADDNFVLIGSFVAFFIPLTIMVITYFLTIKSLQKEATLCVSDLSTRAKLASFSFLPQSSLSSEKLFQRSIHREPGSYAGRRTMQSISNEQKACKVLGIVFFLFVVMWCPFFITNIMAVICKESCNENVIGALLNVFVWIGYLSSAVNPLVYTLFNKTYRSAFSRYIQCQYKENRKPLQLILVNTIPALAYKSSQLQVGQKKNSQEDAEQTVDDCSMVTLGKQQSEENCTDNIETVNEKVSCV
T4 sequence (P34969 whole entry): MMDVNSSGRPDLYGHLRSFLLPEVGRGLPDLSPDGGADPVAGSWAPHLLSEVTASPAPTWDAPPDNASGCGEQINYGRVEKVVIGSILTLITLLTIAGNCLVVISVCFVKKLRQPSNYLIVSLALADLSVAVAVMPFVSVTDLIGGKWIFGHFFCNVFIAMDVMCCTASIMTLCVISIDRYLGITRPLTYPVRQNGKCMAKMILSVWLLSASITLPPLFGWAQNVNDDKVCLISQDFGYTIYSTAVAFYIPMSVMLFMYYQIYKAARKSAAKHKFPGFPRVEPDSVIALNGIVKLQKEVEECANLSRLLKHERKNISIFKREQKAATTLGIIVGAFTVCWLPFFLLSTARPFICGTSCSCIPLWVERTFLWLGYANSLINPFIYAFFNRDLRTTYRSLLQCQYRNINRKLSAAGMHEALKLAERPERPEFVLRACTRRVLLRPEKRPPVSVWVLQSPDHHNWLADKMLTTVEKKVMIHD
T7 sequence (P28223 whole entry): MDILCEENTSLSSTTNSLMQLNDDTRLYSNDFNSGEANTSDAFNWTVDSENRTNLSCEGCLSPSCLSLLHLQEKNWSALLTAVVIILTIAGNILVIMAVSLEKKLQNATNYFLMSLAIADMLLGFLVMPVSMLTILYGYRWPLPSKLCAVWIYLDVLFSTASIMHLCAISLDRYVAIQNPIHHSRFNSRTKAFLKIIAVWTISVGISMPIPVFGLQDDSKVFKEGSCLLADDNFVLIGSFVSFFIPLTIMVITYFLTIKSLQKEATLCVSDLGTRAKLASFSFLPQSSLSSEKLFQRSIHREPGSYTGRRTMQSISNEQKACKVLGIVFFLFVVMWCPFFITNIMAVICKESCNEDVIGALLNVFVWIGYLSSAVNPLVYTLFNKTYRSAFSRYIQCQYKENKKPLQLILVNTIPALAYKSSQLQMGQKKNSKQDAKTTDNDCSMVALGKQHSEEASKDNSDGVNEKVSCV
T6 sequence (P14842 whole entry): as the sequence (P14842 whole entry) above

Compound	potentiation of the 5-HT2A receptor response (in words) [1]	potentiation of the 5-HT1A receptor response (in words) [2]	also measured
CCCCCCCC/C=C\CCCCCCCCOCC(CO)OC(C)=O (stereo not drawn) [1-oleyl-2-acetylglycerol]	weakly inhibited	–	–
CCCCCCCC/C=C\CCCCCCC(C)(C)C(N)=O [2,2-dimethyloleamide]	potent inhibitors	–	–
CCCC/C=C\CCCCCCCC(N)=O [14:1^9, Myristoleamide]	–	more effective on the 5-HT1A receptor than 5-HT2A	–
CCCCCC/C=C\CCCCCCCC(N)=O [16:1^9, Palmitoleamide]	–	approaching the potency of oleamide	–
CCCCCCCCCCCCCCCCCC(N)=O [18:0, stearamide]	no observable potentiation; also recorded: ineffective at potentiating	less effective than oleamide, albeit not inactive	–
CCCCCCCC/C=C/CCCCCCCC(N)=O [18:1^9-trans, Elaidamide]	no observable potentiation; also recorded: ineffective at potentiating	less effective than oleamide, albeit not inactive	–
CCCCC/C=C\C/C=C\CCCCCCCC(N)=O [18:2^9,12, Linoleamide]	–	approaching the potency of oleamide	–
CC/C=C\C/C=C\C/C=C\CCCCCCCC(N)=O [18:3^6,9,12, linolenamide]	more effective but still less potent	–	–
CCCCCCCCCCCCCC/C=C\CCCC(N)=O [20:1^5]	–	–	potentiation of the 5-HT2A receptor response (in words) ([1]; listed as 20:1^9): inactivity; potentiation of the 5-HT2A receptor response (in words) ([1]; listed as 20:1^13): modest activity
CCCCCCCC/C=C\CCCCCCCCCCCCCC(N)=O [24:1^9, Nervonamide]	modest activity	–	–
CCCCC/C=C\C/C=C\C/C=C\C/C=C\CCCC(N)=O [Arachidonamide]	ineffective	–	potentiation of the 5-HT2A receptor response (in words) ([1]; listed as arachidonamide): less active or ineffective
CCCCCCCCC#CCCCCCCCC(N)=O [Compound 2, 9-octadecynamide]	nearly equipotent with oleamide	–	–
CCCCCCCC/C=C\CCCCCCCC(=O)NCC(=O)O [N-oleyl glycine, N-Oleoyl glycine]	–	weak potentiator	–
CCCCCCCCC=CCCCCCCCC(=O)N(C)C [NMe2 tertiary amide]	maximum effect	–	–
CCCCC/C=C\C/C=C\C/C=C\C/C=C\CCCC(=O)NCCO [anandamide, reference compound]	weakly inhibitory; also recorded: less active or ineffective	found to potentiate	–
CCCCCCCC/C=C\CCCCCCCC(=O)NC1CC1 [cyclopropyl amide]	uniquely effective at inhibiting; also recorded: inactive or inhibitory	effective at potentiating	–
CCCCCCCCC=CCCCCCCCC(=O)NC(C)C [isopropyl amide]	inactive or inhibitory	effective at potentiating	–
CCCCCCCC/C=C\CCCCCCCC(N)=O [oleamide, cis-9-ocatadecenamide]	most effective	–	potentiation response ([3]; 100 nM 5-HT): 165%; potentiation response ([3]; 1 μM 5-HT): 170%; potentiation at higher concentration ([3]; 1 μM oleamide): no additional potentiation; concentration giving maximal response ([3]; assayed at 100 nM or 1 μM 5-HT): 100 nM; effect of treatment alone ([3]; without 5-HT): no effect; potentiation ([4]; 100 nM oleamide): 370%; potentiation ([4]; 1 μM oleamide): 560%; lowest concentrations producing a measurable effect ([4]; with 5-HT): 1 to 10 nM; effect of treatment alone ([4]; without 5-HT): no effect; potentiation of 5-HT2C ([5]; 100 nM serotonin, 100 nM oleamide): 365%; concentration of maximal potentiation [5]: 100 nM; lowest concentration at which potentiation was observed [5]: 1 nM; action at the 5-HT7 receptor ([6]; alone): weak agonist; action at the 5-HT7 receptor ([6]; in the presence of serotonin): unsurmountable antagonist; effect on 5-HT3 receptor [7]: no effect; potentiation of 5-HT2A [8]: 228%; potentiation of 5-HT2A [9]: 260%
CCCCCCCC/C=C\CCCCCCCC(=O)O [oleic acid, Oleic acid, reference compound]	did not provide a comparable potentiation	better tolerated	–
CCCCCCCC/C=C\CCCCCCCC=O [oleyl aldehyde]	–	–	inhibition of FAAH (in words) [10]: potent inhibitors
CCCCCCCC/C=C\CCCCCCCC(=O)NCCO [oleyl ethanolamide]	less active or ineffective	found to potentiate	–
CCCCCCCC/C=C\CCCCCCCC(=O)NCCCO [oleyl propanolamide]	–	equally effective	–
